{
  "source": "paper PMC6271077",
  "about": "“Synthesis, Anticancer and Antibacterial Activity of Salinomycin N-Benzyl Amides” (Molecules, 2014)",
  "key": {"S. aureus ATCC 25923": {"system": "S. aureus ATCC 25923", "test": "MIC microdilution", "format": "cell-based", "settings": "Staphylococcus aureus"}, "MRSA 514/11": {"system": "MRSA 514/11", "test": "MIC microdilution, hospital MRSA", "format": "cell-based", "settings": "Staphylococcus aureus"}, "MRSA 452/11": {"system": "MRSA 452/11", "test": "MIC microdilution, hospital MRSA", "format": "cell-based", "settings": "Staphylococcus aureus"}, "MRSE 470/11": {"system": "MRSE 470/11", "test": "MIC microdilution, hospital MRSE", "format": "cell-based", "settings": "Staphylococcus epidermidis"}, "MRSA 572/12": {"system": "MRSA 572/12", "test": "MIC microdilution, hospital MRSA", "format": "cell-based", "settings": "Staphylococcus aureus"}, "S. aureus ATCC 29213": {"system": "S. aureus ATCC 29213", "test": "MIC microdilution", "format": "cell-based", "settings": "Staphylococcus aureus"}, "[1]": {"system": "M. tuberculosis isoniazid-sensitive strain (spec. 192)", "test": "Tuberculostatic activity, test-tube dilution", "format": "cell-based", "settings": "Mycobacterium tuberculosis, read-out: MIC M. tuberculosis Isoniazid-Sensitive Strain"}, "MRSE 459/11": {"system": "MRSE 459/11", "test": "MIC microdilution, hospital MRSE", "format": "cell-based", "settings": "Staphylococcus epidermidis"}, "MRSE 469/11": {"system": "MRSE 469/11", "test": "MIC microdilution, hospital MRSE", "format": "cell-based", "settings": "Staphylococcus epidermidis"}, "LoVo": {"system": "LoVo", "test": "Antiproliferative SRB assay, LoVo", "format": "cell-based, human", "settings": "for IC50: Homo sapiens, LoVo, 72 h, read-out: IC50 LoVo; for SI LoVo: SI = IC50 BALB/3T3 / IC50 LoVo"}, "MRSA 573/12": {"system": "MRSA 573/12", "test": "MIC microdilution, hospital MRSA", "format": "cell-based", "settings": "Staphylococcus aureus"}, "MRSA 537/12": {"system": "MRSA 537/12", "test": "MIC microdilution, hospital MRSA", "format": "cell-based", "settings": "Staphylococcus aureus"}, "[2]": {"system": "S. epidermidis ATCC 35984", "test": "MIC microdilution", "format": "cell-based", "settings": "Staphylococcus epidermidis"}, "MRSE 461/11": {"system": "MRSE 461/11", "test": "MIC microdilution, hospital MRSE", "format": "cell-based", "settings": "Staphylococcus epidermidis"}, "[3]": {"settings": "ATCC25923, S. aureus ATCC 25923, 18 h, 35 °C, read-out: MIC"}, "[4]": {"settings": "hospital MRSA strain 514/11, read-out: MIC"}, "[5]": {"settings": "hospital MRSA strain 452/11, read-out: MIC"}, "[6]": {"settings": "hospital MRSE strain 470/11, read-out: MIC"}, "[7]": {"settings": "hospital MRSA strain 572/12, read-out: MIC"}, "[8]": {"settings": "ATCC29213, S. aureus ATCC 29213, 18 h, 35 °C, read-out: MIC"}, "[9]": {"settings": "hospital MRSE strain 459/11, read-out: MIC"}, "[10]": {"settings": "hospital MRSE strain 469/11, read-out: MIC"}, "[11]": {"settings": "hospital MRSA strain 573/12, read-out: MIC"}, "[12]": {"settings": "hospital MRSA strain 537/12, read-out: MIC"}, "[13]": {"settings": "ATCC35984, S. epidermidis ATCC 35984, 18 h, 35 °C, read-out: MIC"}, "[14]": {"settings": "hospital MRSE strain 461/11, read-out: MIC"}},
  "note": "Where two headings read alike, the source gives them in different places.",
  "data": [
    {"smiles": "CC[C@H](C(=O)NCc1ccc([N+](=O)[O-])cc1)C1CC[C@H](C)C([C@@H](C)[C@H](O)[C@H](C)C(=O)[C@H](CC)C2O[C@]3(C=C[C@@H](O)C4(CC[C@@](C)(C5CC[C@](O)(CC)[C@H](C)O5)O4)O3)[C@H](C)C[C@@H]2C)O1", "note": "(stereo partly drawn) [NO2-p]", "values": [
      {"measurement": "MIC", "setting": "S. aureus ATCC 25923; [3]", "result": 128, "unit": "µg/mL"},
      {"measurement": "MIC", "setting": "MRSA 514/11; [4]", "result": 128, "unit": "µg/mL"},
      {"measurement": "MIC", "setting": "MRSA 452/11; [5]", "result": 128, "unit": "µg/mL"},
      {"measurement": "MIC", "setting": "MRSE 470/11; [6]", "result": 256, "unit": "µg/mL"},
      {"measurement": "MIC", "setting": "MRSA 572/12; [7]", "result": 128, "unit": "µg/mL"},
      {"measurement": "MIC", "setting": "S. aureus ATCC 29213; [8]", "result": 128, "unit": "µg/mL"},
      {"measurement": "MIC", "setting": "[1]", "result": 50, "unit": "µg/mL"},
      {"measurement": "MIC", "setting": "MRSE 459/11; [9]", "result": 128, "unit": "µg/mL"},
      {"measurement": "MIC", "setting": "MRSE 469/11; [10]", "result": 256, "unit": "µg/mL"},
      {"measurement": "IC50", "setting": "LoVo; SRB, mean ± SD", "result": "13.3 ± 1.94", "unit": "µM"},
      {"measurement": "SI LoVo", "setting": "LoVo", "result": 0.52},
      {"measurement": "MIC", "setting": "MRSA 573/12; [11]", "result": 256, "unit": "µg/mL"},
      {"measurement": "MIC", "setting": "MRSA 537/12; [12]", "result": 256, "unit": "µg/mL"},
      {"measurement": "MIC", "setting": "[2]; [13]", "result": 128, "unit": "µg/mL"},
      {"measurement": "MIC", "setting": "MRSE 461/11; [14]", "result": 256, "unit": "µg/mL"}
    ]},
    {"smiles": "CC[C@@H](C(=O)[C@@H](C)[C@@H](O)[C@H](C)[C@@H]1O[C@@H]([C@@H](CC)C(=O)O)CC[C@@H]1C)[C@H]1O[C@]2(C=C[C@@H](O)[C@]3(CC[C@@](C)([C@H]4CC[C@](O)(CC)[C@H](C)O4)O3)O2)[C@H](C)C[C@@H]1C", "note": "[SAL, Salinomycin]", "values": [
      {"measurement": "MIC", "setting": "S. aureus ATCC 25923; ATCC25923, 18 h", "result": 2, "unit": "µg/mL"},
      {"measurement": "MIC", "setting": "MRSA 514/11; MRSA", "result": 8, "unit": "µg/mL"},
      {"measurement": "MIC", "setting": "MRSA 452/11; MRSA", "result": 16, "unit": "µg/mL"},
      {"measurement": "MIC", "setting": "MRSE 470/11; MRSE", "result": 16, "unit": "µg/mL"},
      {"measurement": "MIC", "setting": "MRSA 572/12; MRSA", "result": 16, "unit": "µg/mL"},
      {"measurement": "MIC", "setting": "S. aureus ATCC 29213; ATCC29213, 18 h", "result": 4, "unit": "µg/mL"},
      {"measurement": "MIC", "setting": "[1]", "result": 25, "unit": "µg/mL"},
      {"measurement": "MIC", "setting": "MRSE 459/11; MRSE", "result": 16, "unit": "µg/mL"},
      {"measurement": "MIC", "setting": "MRSE 469/11; MRSE", "result": 16, "unit": "µg/mL"},
      {"measurement": "IC50", "setting": "LoVo", "result": "0.47 ± 0.08", "unit": "µM"},
      {"measurement": "SI LoVo", "setting": "LoVo", "result": 27.70},
      {"measurement": "MIC", "setting": "MRSA 573/12; MRSA", "result": 16, "unit": "µg/mL"},
      {"measurement": "MIC", "setting": "MRSA 537/12; MRSA", "result": 16, "unit": "µg/mL"},
      {"measurement": "MIC", "setting": "[2]; ATCC35984, 18 h", "result": 2, "unit": "µg/mL"},
      {"measurement": "MIC", "setting": "MRSE 461/11; MRSE", "result": 16, "unit": "µg/mL"}
    ]},
    {"smiles": "CC[C@H](C(=O)NCc1ccc(F)cc1)C1CC[C@H](C)C([C@@H](C)[C@H](O)[C@H](C)C(=O)[C@H](CC)C2O[C@]3(C=C[C@@H](O)C4(CC[C@@](C)(C5CC[C@](O)(CC)[C@H](C)O5)O4)O3)[C@H](C)C[C@@H]2C)O1", "note": "(stereo partly drawn) [F-p]", "values": [
      {"measurement": "MIC", "setting": "S. aureus ATCC 25923; [3]", "result": 32, "unit": "µg/mL"},
      {"measurement": "MIC", "setting": "MRSA 514/11; [4]", "result": 32, "unit": "µg/mL"},
      {"measurement": "MIC", "setting": "MRSA 452/11; [5]", "result": 16, "unit": "µg/mL"},
      {"measurement": "MIC", "setting": "MRSE 470/11; [6]", "result": 32, "unit": "µg/mL"},
      {"measurement": "MIC", "setting": "MRSA 572/12; [7]", "result": 32, "unit": "µg/mL"},
      {"measurement": "MIC", "setting": "S. aureus ATCC 29213; [8]", "result": 32, "unit": "µg/mL"},
      {"measurement": "MIC", "setting": "[1]", "result": 50, "unit": "µg/mL"},
      {"measurement": "MIC", "setting": "MRSE 459/11; [9]", "result": 32, "unit": "µg/mL"},
      {"measurement": "MIC", "setting": "MRSE 469/11; [10]", "result": 64, "unit": "µg/mL"},
      {"measurement": "IC50", "setting": "LoVo; SRB, mean ± SD", "result": "6.18 ± 0.91", "unit": "µM"},
      {"measurement": "SI LoVo", "setting": "LoVo", "result": 1.40},
      {"measurement": "MIC", "setting": "MRSA 573/12; [11]", "result": 64, "unit": "µg/mL"},
      {"measurement": "MIC", "setting": "MRSA 537/12; [12]", "result": 32, "unit": "µg/mL"},
      {"measurement": "MIC", "setting": "[2]; [13]", "result": 32, "unit": "µg/mL"},
      {"measurement": "MIC", "setting": "MRSE 461/11; [14]", "result": 32, "unit": "µg/mL"}
    ]}
  ]
}
